Data taken from patent publication US12227501B2, “3-amino-2-[2-(acylamino)pyridin-4-yl]-1,5,6,7-tetrahydro-4h-pyrrolo[3,2-c]pyridin-4-one as CSNK1 inhibitors” (Bayer Aktiengesellschaft, priority 2019, dated 2025).
Where a name gives a salt, the structure may show the parent alone. Read-outs that look alike come from different tables or passages of the source.

Assays:
Assay type in all cases: biochemical
[1] = target: wild-type Epidermal Growth Factor Receptor (EGFR) (Homo sapiens (Human), UniProt P00533); assay: WT-EGFR Kinase Assay (TR-FRET, 2 mM ATP)
human CSNK1A1 [2] = target: T1, human CSNK1A1 (Homo sapiens (Human), UniProt P48729); assay: CSNK1A1 Assay 1 (ADP-Glo, 1 μM ATP); conditions: substrate Btn-Ahx-SGSEGDSESGEEEG, read-out: CSNK1A1 Assay 1 IC50 [mol/l] (median)
Description: CSNK1A1-inhibitory activity of compounds of the present invention in presence of 1 μM adenosine-tri-phosphate (ATP) was quantified employing the CSNK1A1 assay as described in the following paragraphs. In essence, the enzyme activity is measured by quantification of the adenosine-di-phosphate (ADP), which is generated as a co-product of the enzyme reaction, via the “ADP-Glo™ Kinase Assay” kit from the company Promega. This detection system works as follows: In a first step the ATP not consumed in the kinase reaction is quantitatively converted to cAMP employing an adenylate cyclase (“ADP-Glo-reagent”), then the adenylate cyclase is stopped and the ADP generated in the kinase reaction converted to ATP which generates in a luciferase-based reaction a glow-luminescence signal (“Kinase Detection Reagent”). Recombinant fusion protein of N-terminal Glutathion-S-Transferase (GST) and full-length human CSNK1A1, expressed by baculovirus infected insect cells and purified via Glutathion affinity chromatography, was purchased from Life Technologies (product no. PV4174) and used as enzyme. As substrate for the kinase reaction the biotinylated peptide Btn-Ahx-[…] (C-terminus in amide form) was used which can be purchased e.g. from the company Biosyntan (Berlin-Buch, Germany).
For the assay 50 nl of a 100 fold concentrated solution of the test compound in DMSO was pipetted into a white 1536-well microtiter plate (Greiner Bio-One, Frickenhausen, Germany), 2 μL of a solution of CSNK1A1 in aqueous assay buffer [50 mM HEPES pH 7.5, 10% (v/v) glycerol, 10 mM MgCl2, 50 mM NaCl, 1 mM dithiothreitol, 0.01% (w/v) bovine serum albumin, 0.01% (v/v) Triton X-100] were added and the mixture was incubated for 15 min at 22° C. to allow pre-binding of the test compounds to the enzyme before the start of the kinase reaction. […] The concentration of CSNK1A1 was adjusted depending of the activity of the enzyme lot and was chosen appropriate to have the assay in the linear range, a typical concentration is 0.15 ng/μL. The reaction was stopped by the addition of 2.5 μL of “ADP-Glo-reagent” (1:1.5 fold diluted with water) and the resulting mixture was incubated at 22° C. for 1 h to convert the ATP not consumed in the kinase reaction completely […]. Subsequently 2.5 μL of the “kinase detection reagent” (1.2 fold more concentrated than recommended by the producer) were added, the resulting mixture was incubated at 22° C. for 1 h and then the luminescence measured with a suitable measurement instrument (e.g. Viewlux™ from Perkin-Elmer). The amount of emitted light was taken as a measure for the amount of ADP generated and thereby for the activity of the CSNK1A1.

human CSNK1D = human CSNK1D (Homo sapiens (Human), UniProt P48730); assay: CSNK1D Assay (ADP-Glo, 1 μM ATP); conditions: read-out: CSNK1D IC50 [mol/l] (median)
Summary of the method: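 GST-tagged full-length human CSNK1D from baculovirus-infected insect cells, typically ~0.5 ng/μL, with biotinylated peptide substrate and 1 μM ATP in HEPES pH 7.5 buffer. Compound is preincubated with enzyme 15 min at 22 °C. ADP formed is quantified by ADP-Glo luminescence.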

human CSNK1A1 [3] = target: T1, human CSNK1A1; assay: CSNK1A1 High ATP Assay (ADP-Glo, 1 mM ATP); conditions: read-out: CSNK1A1 high ATP assay IC50 [mol/l] (median)
Summary of the method: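 GST-tagged full-length human CSNK1A1 from baculovirus-infected insect cells (typically about 0.4 ng/μL), pre-incubated with compound 15 min at 22 °C. Reaction with biotinylated peptide biotin-Ahx-KRRRAL-pS-VASLPGL at 1 mM ATP. ADP formed read by ADP-Glo luminescence.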

human CSNK1A1 [4] = target: T1, human CSNK1A1; assay: CSNK1A1 Assay 2 (ADP-Glo, 1 μM ATP); conditions: substrate biotin-Ahx-KRRRAL-pS-VASLPGL, read-out: CSNK1A1 Assay 2 IC50 [mol/l] (median)
Summary of the method: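 Full-length human CSNK1A1 as an N-terminal GST fusion (baculovirus/insect cells) with biotinylated peptide substrate biotin-Ahx-KRRRAL-pS-VASLPGL and 1 μM ATP, in HEPES pH 7.5 buffer. Compounds were pre-incubated with enzyme (~0.0375 ng/μL) for 15 min at 22 °C. Generated ADP was read by ADP-Glo luminescence as the activity measure.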

[5] = read-out: EGFR Wildtyp- 2 mM ATP IC50 [mol/l] (median)

Sequence of human CSNK1D (P48730 whole entry): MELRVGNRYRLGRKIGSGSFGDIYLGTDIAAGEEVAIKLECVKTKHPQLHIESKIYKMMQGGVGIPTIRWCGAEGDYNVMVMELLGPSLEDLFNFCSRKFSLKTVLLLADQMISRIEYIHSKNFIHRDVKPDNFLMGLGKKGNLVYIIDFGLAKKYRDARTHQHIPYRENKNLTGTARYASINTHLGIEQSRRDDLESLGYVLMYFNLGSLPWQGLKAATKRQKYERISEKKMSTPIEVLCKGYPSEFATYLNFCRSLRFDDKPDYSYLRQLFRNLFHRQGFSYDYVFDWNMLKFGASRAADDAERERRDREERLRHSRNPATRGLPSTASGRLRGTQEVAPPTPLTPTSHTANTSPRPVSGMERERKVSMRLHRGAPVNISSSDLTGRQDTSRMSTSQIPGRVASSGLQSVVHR
Sequence of wild-type Epidermal Growth Factor Receptor (EGFR) (P00533 669-1210): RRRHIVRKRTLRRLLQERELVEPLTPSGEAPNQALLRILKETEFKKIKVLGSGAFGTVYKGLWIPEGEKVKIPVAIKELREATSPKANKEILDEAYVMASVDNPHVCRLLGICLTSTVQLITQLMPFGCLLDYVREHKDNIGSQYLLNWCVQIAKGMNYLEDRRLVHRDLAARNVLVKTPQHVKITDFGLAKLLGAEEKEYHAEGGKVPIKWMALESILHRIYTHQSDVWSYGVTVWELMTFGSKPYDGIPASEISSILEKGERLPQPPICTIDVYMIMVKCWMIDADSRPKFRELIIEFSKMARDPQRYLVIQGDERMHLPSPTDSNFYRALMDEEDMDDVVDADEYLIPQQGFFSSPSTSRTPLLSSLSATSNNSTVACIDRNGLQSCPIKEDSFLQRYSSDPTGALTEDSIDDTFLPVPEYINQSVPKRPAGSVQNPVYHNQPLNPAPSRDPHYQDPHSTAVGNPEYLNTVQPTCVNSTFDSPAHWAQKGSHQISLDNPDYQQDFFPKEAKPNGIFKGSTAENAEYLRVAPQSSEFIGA
T1 sequence (P48729 whole entry): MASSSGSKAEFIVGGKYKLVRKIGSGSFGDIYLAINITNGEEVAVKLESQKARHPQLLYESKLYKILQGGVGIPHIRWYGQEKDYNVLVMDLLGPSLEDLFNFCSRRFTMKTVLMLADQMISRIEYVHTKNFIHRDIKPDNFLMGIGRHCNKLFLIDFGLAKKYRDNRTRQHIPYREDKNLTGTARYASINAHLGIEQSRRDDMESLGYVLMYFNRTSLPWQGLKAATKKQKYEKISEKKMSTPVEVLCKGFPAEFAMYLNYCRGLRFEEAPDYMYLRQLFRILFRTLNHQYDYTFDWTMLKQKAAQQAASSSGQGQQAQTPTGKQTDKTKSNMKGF

CN1CCc2[nH]c(-c3ccnc(NC(=O)Cc4ccccc4)c3)c(Nc3ccccc3)c2C1=O [Example 2, N-[4-(3-anilino-5-methyl-4-oxo-4,5,6,7-tetrahydro-1H-pyrrolo[3,2-c]pyridin-2-yl)pyridin-2-yl]-2-phenylacetamide]
IC50 [1, 5]: 1170 nM | IC50 (human CSNK1A1 [2]): 3.95 nM | IC50 (human CSNK1D): 5.41 nM | IC50 (human CSNK1A1 [3]): 114 nM

Cc1cc(CC(=O)Nc2cc(-c3[nH]c4c(c3Nc3ccccc3)C(=O)N(C)CC4)ccn2)ccc1F [Example 3, N-[4-(3-anilino-5-methyl-4-oxo-4,5,6,7-tetrahydro-1H-pyrrolo[3,2-c]pyridin-2-yl)pyridin-2-yl]-2-(4-fluoro-3-methylphenyl)acetamide]
IC50 [1, 5]: 2130 nM | IC50 (human CSNK1A1 [2]): 4.28 nM | IC50 (human CSNK1D): 5.66 nM | IC50 (human CSNK1A1 [3]): 78.4 nM

CN1CCc2[nH]c(-c3ccnc(NC(=O)Cc4ccc(F)cc4)c3)c(Nc3ccccn3)c2C1=O [Example 12, 2-(4-fluorophenyl)-N-(4-{5-methyl-4-oxo-3-[(pyridin-2-yl)amino]-4,5,6,7-tetrahydro-1H-pyrrolo[3,2-c]pyridin-2-yl}pyridin-2-yl)acetamide]
IC50 [1, 5]: > 20000 nM | IC50 (human CSNK1A1 [2]): 2.32 nM | IC50 (human CSNK1D): 10.2 nM | IC50 (human CSNK1A1 [3]): 5.2 nM

CN1CCc2[nH]c(-c3ccnc(NC(=O)Cc4cnccn4)c3)c(Nc3ccccc3)c2C1=O [Example 114, N-[4-(3-anilino-5-methyl-4-oxo-4,5,6,7-tetrahydro-1H-pyrrolo[3,2-c]pyridin-2-yl)pyridin-2-yl]-2-(pyrazin-2-yl)acetamide]
IC50 [1, 5]: 2060 nM | IC50 (human CSNK1A1 [4]): 2.43 nM | IC50 (human CSNK1D): 4.7 nM | IC50 (human CSNK1A1 [3]): 227 nM

CN1CCc2[nH]c(-c3ccnc(NC(=O)Cc4ccccn4)c3)c(Nc3ccccc3)c2C1=O [Example 115, N-[4-(3-anilino-5-methyl-4-oxo-4,5,6,7-tetrahydro-1H-pyrrolo[3,2-c]pyridin-2-yl)pyridin-2-yl]-2-(pyridin-2-yl)acetamide]
IC50 [1, 5]: 3670 nM | IC50 (human CSNK1A1 [4]): 2.41 nM | IC50 (human CSNK1D): 5.09 nM | IC50 (human CSNK1A1 [3]): 248 nM

CN1CCc2[nH]c(-c3ccnc(NC(=O)Cc4cccc(C(F)(F)F)c4)c3)c(Nc3ccccc3)c2C1=O [Example 116, N-[4-(3-anilino-5-methyl-4-oxo-4,5,6,7-tetrahydro-1H-pyrrolo[3,2-c]pyridin-2-yl)pyridin-2-yl]-2-[3-(trifluoromethyl)phenyl]acetamide]
IC50 [1, 5]: > 20000 nM | IC50 (human CSNK1A1 [4]): 18.6 nM | IC50 (human CSNK1D): 54.4 nM | IC50 (human CSNK1A1 [3]): 453 nM

COC(=O)c1ccc(CC(=O)Nc2cc(-c3[nH]c4c(c3Nc3ccccc3)C(=O)N(C)CC4)ccn2)cc1 [Example 117, methyl 4-(2-{[4-(3-anilino-5-methyl-4-oxo-4,5,6,7-tetrahydro-1H-pyrrolo[3,2-c]pyridin-2-yl)pyridin-2-yl]amino}-2-oxoethyl)benzoate]
IC50 [1, 5]: 1270 nM | IC50 (human CSNK1A1 [4]): 1.46 nM | IC50 (human CSNK1D): 2.99 nM | IC50 (human CSNK1A1 [3]): 96.2 nM

CC1(C)Cc2[nH]c(-c3ccnc(NC(=O)Cc4ccc(F)cc4)c3)c(Nc3cccc(F)c3)c2C(=O)N1 [Example 119, N-{4-[3-(3-fluoroanilino)-6,6-dimethyl-4-oxo-4,5,6,7-tetrahydro-1H-pyrrolo[3,2-c]pyridin-2-yl]pyridin-2-yl}-2-(4-fluorophenyl)acetamide]
IC50 [1, 5]: 2540 nM | IC50 (human CSNK1A1 [4]): 5.65 nM | IC50 (human CSNK1D): 10.8 nM | IC50 (human CSNK1A1 [3]): 354 nM

O=C(Cc1ccc(F)cc1)Nc1cc(-c2[nH]c3c(c2Nc2cccc(F)c2Cl)C(=O)NC2(CCC2)C3)ccn1 [Example 122, N-{4-[3′-(2-chloro-3-fluoroanilino)-4′-oxo-1′,4′,5′,7′-tetrahydrospiro[cyclobutane-1,6′-pyrrolo[3,2-c]pyridin]-2′-yl]pyridin-2-yl}-2-(4-fluorophenyl)acetamide]
IC50 [1, 5]: 2150 nM | IC50 (human CSNK1A1 [4]): 4.12 nM | IC50 (human CSNK1D): 4.71 nM | IC50 (human CSNK1A1 [3]): 26.8 nM

O=C(Cc1ccc(F)cc1)Nc1cc(-c2[nH]c3c(c2Nc2ccccc2)C(=O)NC2(CC2)C3)ccn1 [Example 146, N-[4-(3′-anilino-4′-oxo-1′,4′,5′,7′-tetrahydrospiro[cyclopropane-1,6′-pyrrolo[3,2-c]pyridin]-2′-yl)pyridin-2-yl]-2-(4-fluorophenyl)acetamide]
IC50 [1, 5]: 667 nM | IC50 (human CSNK1A1 [4]): 1.38 nM | IC50 (human CSNK1D): 6.28 nM | IC50 (human CSNK1A1 [3]): 5.04 nM

CN1CCc2[nH]c(-c3ccnc(NC(=O)Cc4ccc(F)cc4)c3)c(Nc3cc(F)ccc3F)c2C1=O [Example 150, N-{4-[3-(2,5-difluoroanilino)-5-methyl-4-oxo-4,5,6,7-tetrahydro-1H-pyrrolo[3,2-c]pyridin-2-yl]pyridin-2-yl}-2-(4-fluorophenyl)acetamide]
IC50 ([1]; EGFR Wildtyp- 2 mM ATP IC50 [mol/l] (median)): > 20000 nM | IC50 [1, 5]: 18300 nM | IC50 (human CSNK1A1 [4]): 17.9 nM | IC50 (human CSNK1D): 26.6 nM | IC50 (human CSNK1A1 [3]): 1270 nM

COCCNC(=O)c1ccc(CC(=O)Nc2cc(-c3[nH]c4c(c3Nc3ccccc3)C(=O)N(C)CC4)ccn2)cc1 [Example 152, 4-(2-{[4-(3-anilino-5-methyl-4-oxo-4,5,6,7-tetrahydro-1H-pyrrolo[3,2-c]pyridin-2-yl)pyridin-2-yl]amino}-2-oxoethyl)-N-(2-methoxyethyl)benzamide]
IC50 [1, 5]: 1660 nM | IC50 (human CSNK1A1 [4]): 2.45 nM | IC50 (human CSNK1D): 7.96 nM | IC50 (human CSNK1A1 [3]): 37 nM

CN1CCc2[nH]c(-c3ccnc(NC(=O)Cc4ccc(C(=O)N5CCNCC5)cc4)c3)c(Nc3ccccc3)c2C1=O [Example 153, N-[4-(3-anilino-5-methyl-4-oxo-4,5,6,7-tetrahydro-1H-pyrrolo[3,2-c]pyridin-2-yl)pyridin-2-yl]-2-[4-(piperazine-1-carbonyl)phenyl]acetamide]
IC50 [1, 5]: 287 nM | IC50 (human CSNK1A1 [4]): 1.96 nM | IC50 (human CSNK1D): 9.28 nM | IC50 (human CSNK1A1 [3]): 73.9 nM

CN1CCc2[nH]c(-c3ccnc(NC(=O)Cc4ccc(F)cc4)c3)c(Nc3cccc(F)c3F)c2C1=O [Example 154, N-{4-[3-(2,3-difluoroanilino)-5-methyl-4-oxo-4,5,6,7-tetrahydro-1H-pyrrolo[3,2-c]pyridin-2-yl]pyridin-2-yl}-2-(4-fluorophenyl)acetamide formamide salt]
IC50 [1, 5]: > 20000 nM | IC50 (human CSNK1A1 [4]): 3.33 nM | IC50 (human CSNK1D): 4.45 nM | IC50 (human CSNK1A1 [3]): 119 nM

CN(C)CCNC(=O)c1ccc(CC(=O)Nc2cc(-c3[nH]c4c(c3Nc3ccccc3)C(=O)N(C)CC4)ccn2)cc1 [Example 155, 4-(2-{[4-(3-anilino-5-methyl-4-oxo-4,5,6,7-tetrahydro-1H-pyrrolo[3,2-c]pyridin-2-yl)pyridin-2-yl]amino}-2-oxoethyl)-N-[2-(dimethylamino)ethyl]benzamide]
IC50 [1, 5]: 476 nM | IC50 (human CSNK1A1 [4]): 3.12 nM | IC50 (human CSNK1D): 7.01 nM | IC50 (human CSNK1A1 [3]): 48.5 nM

CN1CCc2[nH]c(-c3ccnc(NC(=O)Cc4c(F)cc(F)cc4F)c3)c(Nc3ccccc3)c2C1=O [Example 164, N-[4-(3-anilino-5-methyl-4-oxo-4,5,6,7-tetrahydro-1H-pyrrolo[3,2-c]pyridin-2-yl)pyridin-2-yl]-2-(2,4,6-trifluorophenyl)acetamide]
IC50 [1, 5]: 419 nM | IC50 (human CSNK1A1 [4]): 3.83 nM | IC50 (human CSNK1D): 3.08 nM | IC50 (human CSNK1A1 [3]): 149 nM
